How the values were obtained:
human STING = human STING (Homo sapiens, UniProt Q86WV6); test: Fluorescence Thermal Shift assay (hSTING FTS binding assay); conditions: ΔTm, STING 0.1 mg/mL, SyproOrange, 25 to 99° C.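 Note: STING preincubated with compound for 20 min in HEPES NaCl buffer pH 7.5.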
Procedure: Fluorescence Thermal Shift Assay Compounds of the present invention were tested for binding to human STING in Fluorescence Thermal Shift assay. […] Final STING concentration was 0.1 mg/mL. Thermal unfolding was performed in Real-Time PCR QuantStudio 6 Flex System (Applied Biosystems), from 25 to 99° C., with continuous ramp mode and ramp rate 0.033° C./s. The data were analyzed using Protein Thermal Shift Software (ThermoFisher).

[1] = system: CT26 murine colon carcinoma allografts; test: In vivo anti-tumor efficacy, CT26 allograft; design: species or system female Balb/C mice; conditions: once every fifth day on three occasions; for response of CT26 tumors to the treatment: intravenously, all dose levels
Procedure: In Vivo Anti-Tumor Efficacy The efficacy of Example 4, Example 31 and Example 57 was evaluated in established CT26 murine colon carcinoma allografts in female Balb/C mice. Compounds were formulated in 5% ethanol with 10% Captisol in PBS and administered intravenously, once every fifth day on three occasions. The solution was prepared fresh prior to each administration. […] By the end of the study there was one complete response among animals treated at 10 mg/kg of Example 4. […] By the end of the study, on day 43, there was one complete response recorded in group treated at 20 mg/kg of Example 57.

[2] = system: NF-κB pathway in THP-1 dual cells; test: THP-1 Dual reporter assay, NF-κB pathway (SEAP); type: cell-based; conditions: Homo sapiens, THP1-Dual, 18 h stimulation, absorbance at 630 or 655 nm, read-out: THP1 Dual EC50 (μM) NFkB
Procedure: (§1) THP-1 Dual Reporter Assay
(§2) Compounds of the present invention were tested for their activity using THP-1 dual cells (Invivogen, cat no. thpd-nfis) allowing for simultaneous study of NF-κB pathway and the interferon regulatory factor (IRF) pathway. THP-1 dual cells contain luciferase reporter gene under the control of an ISG54 (interferon-stimulated gene) minimal promoter in conjunction with five interferon-stimulated response elements and a secreted embryonic alkaline phosphatase reporter gene under the control an IFN (interferon)-β minimal promoter fused to five copies of the NF-κB consensus transcriptional response element with three copies of the c-Rel binding site. Following 18 h of stimulation with STING agonist, medium was collected and transferred onto fresh cell culture plate. To verify activity of the IRF pathway, luminescence activity was measured with standard laboratory plate reader immediately after addition 10 μl of the medium to 40 or 50 μl of luminescence reagent (Invivogen, cat. No. rep-qlc2). To verify activity of NF-κB pathway, 10 or 20 μl of the medium was mixed with 80 μl of a detection medium (Invivogen, cat. No. rep-qb2) and incubated for 1 or 2 hours at 37° C. in a humidified atmosphere containing 5% CO2. Next, absorbance at 630 or 655 nm was recorded using standard laboratory plate reader.

[3] = system: interferon regulatory factor (IRF) pathway in THP-1 dual cells; test: THP-1 Dual reporter assay, IRF pathway (luciferase); type: cell-based; conditions: Homo sapiens, THP1-Dual, 18 h stimulation, luminescence
Procedure: as §1, §2

Sequence of human STING (Q86WV6 whole entry H232R): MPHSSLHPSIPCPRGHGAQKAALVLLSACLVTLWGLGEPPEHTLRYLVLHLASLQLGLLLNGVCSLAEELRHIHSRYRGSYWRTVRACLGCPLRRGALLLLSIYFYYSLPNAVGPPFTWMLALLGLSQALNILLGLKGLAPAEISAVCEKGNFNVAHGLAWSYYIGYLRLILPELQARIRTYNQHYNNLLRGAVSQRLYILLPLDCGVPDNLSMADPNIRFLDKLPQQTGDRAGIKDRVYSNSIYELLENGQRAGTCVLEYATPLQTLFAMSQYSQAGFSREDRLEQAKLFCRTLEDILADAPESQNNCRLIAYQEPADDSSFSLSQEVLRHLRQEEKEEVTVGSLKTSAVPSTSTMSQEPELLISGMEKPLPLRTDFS

hSTING FTS binding assay (ΔT ° C.) (human STING) | SMILES | tumor growth effect compared to the control group ([1]; 10 mg/kg intravenously) | response of CT26 tumors to the treatment [1] | tumor growth effect compared to the control group ([1]; 7 mg/kg intravenously) | EC50 [2] | EC50 [3] | other results
+++ (ΔTm≥20° C.) | Cc1ccc(N2CCC[C@H](N(Cc3ccnc(C)c3)Cc3cn(C4CC4)c4cc(N5CC[C@H](N)C(F)(F)C5)c(F)cc4c3=O)C2)cn1.Cl (single isomer, unassigned) [Example 57] | moderately efficacious | responded prominently |  |  |  | tumor growth effect compared to the control group ([1]; 5 mg/kg intravenously): minimal tumor growth delay; tumor growth effect compared to the control group ([1]; 20 mg/kg intravenously): full efficacious; complete responses by the end of the study ([1]; 20 mg/kg intravenously, day 43): one; dose dependence of the tumor response ([1]; 5, 10 and 20 mg/kg intravenously): dose dependent manner
+++ (ΔTm≥20° C.) | COc1cc(CN(Cc2cn(C3CC3)c3cc(F)c(F)cc3c2=O)[C@H]2CCCN(c3ccc(N)nc3)C2)ccn1.Cl [Example 4, 3-({[(3S)-1-(6-Aminopyridin-3-yl)piperidin-3-yl][(2-methoxypyridin-4-yl)methyl]amino}methyl)-1-cyclopropyl-6,7-difluoro-1,4-dihydroquinolin-4-one Hydrochloride] | efficacious and caused tumor growth delay or significant decrease of the tumor size | responded prominently | efficacious and caused tumor growth delay or significant decrease of the tumor size |  |  | complete responses by the end of the study ([1]; 10 mg/kg intravenously): one
+++ (ΔTm≥20° C.) | Cc1ccc(N2CCC[C@H](N(Cc3ccnc(C)c3)Cc3cn(C4CC4)c4cc(N5CCC[C@H](O)C5)c(F)cc4c3=O)C2)cn1.Cl [Example 31, 1-cyclopropyl-6-fluoro-7-[(3S)-3-hydroxypiperidin-1-yl]-3-({[(3S)-1-(6-methylpyridin-3-yl)piperidin-3-yl][(2-methylpyridin-4-yl)methyl]amino}methyl)-1,4-dihydroquinolin-4-one Hydrochloride] |  | responded prominently | slight tumor growth delay |  |  | tumor growth effect compared to the control group ([1]; 15 mg/kg intravenously): prominently efficacious; tumor growth effect compared to the control group ([1]; 30 mg/kg intravenously): prominently efficacious; complete responses by the end of the study ([1]; 30 mg/kg intravenously, day 43): two
++ (10<ΔTm<20° C.) | Cc1cc(CN(Cc2cn(C3CC3)c3cc(OCCO)c(F)cc3c2=O)[C@H]2CCCN(c3cnccn3)C2)ccn1.Cl [Example 85, 1-cyclopropyl-6-fluoro-7-(2-hydroxyethoxy)-3-({[(2-methylpyridin-4-yl)methyl][(3S)-1-(pyrazin-2-yl)piperidin-3-yl]amino}methyl)-1,4-dihydroquinolin-4-one Hydrochloride] |  |  |  | ≤ 1 µM | ≤ 1 µM | 

SMILES | hSTING FTS binding assay (ΔT ° C.) (human STING) | tumor growth effect compared to the control group ([1]; 10 mg/kg intravenously) | response of CT26 tumors to the treatment [1] | tumor growth effect compared to the control group ([1]; 7 mg/kg intravenously) | EC50 [2] | EC50 [3] | other results
Cc1ccc(N2CCC[C@H](N(Cc3ccnc(C)c3)Cc3cn(C4CC4)c4cc(OCCO)c(F)cc4c3=O)C2)cn1 [Example 47, 1-Cyclopropyl-6-fluoro-7-(2-hydroxyethoxy)-3-({[(3S)-1-(6-methylpyridin-3-yl)piperidin-3-yl][(2-methylpyridin-4-yl)methyl]amino}methyl)-1,4-dihydroquinolin-4-one] | +++ (ΔTm≥20° C.) |  |  |  | ≤ 1 µM | ≤ 1 µM | 

Reference: patent US12655124B2, “Heterocyclic compounds as modulators of stimulator of interferon genes (STING)” (RYVU THERAPEUTICS S.A., priority 2019, dated 2026)
